Each compound was assayed on HT-29 cells (assay: HT-29 necroptosis cell viability assay (TNF-α/SMAC mimetic/zVAD-FMK, CellTiter-Glo)). Details: Homo sapiens, HT-29, HT-29 cells, necroptosis induced by TNF-α/SMAC mimetic/zVAD-FMK, CellTiter-Glo; read-out: Activity (IC50 class).
Type: cell-based
Summary of the method: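 Necroptosis was triggered by TNF-α (10 ng/ml), SMAC mimetic (6 μM) and zVAD-FMK (10 μM) in serum-free medium during 20 h compound exposure (10 concentrations, threefold steps) of HT-29 cells. IC50 from duplicate dose-responses uses CellTiter-Glo ATP luminescence as viability read-out.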

Compound	IC50 [nM]
NC(=O)c1ncc(Oc2ccc(-n3nc4n(c3=O)[C@H](c3ccccc3)CC4)cc2F)s1 (single isomer, unassigned) [Example 670]	< 100
Cc1nc(C(N)=O)sc1Oc1ccc(-n2nc3n(c2=O)[C@H](c2ccc(F)cc2)CC3)cc1F (single isomer, unassigned) [Example 668]	< 100

Same assay, conditions: Homo sapiens, HT-29, HT-29 necroptosis cell viability assay; class symbols for IC50; read-out: Activity

Compound	IC50 [nM]
Cc1c(CC(N)=O)nn(C)c1Oc1ccc(-n2ncn(Cc3c(F)cccc3F)c2=O)cc1F [Example 143, 2-(5-(4-(4-(2,6-difluorobenzyl)-5-oxo-4,5-dihydro-1H-1,2,4-triazol-1-yl)-2-fluorophenoxy)-1,4-dimethyl-1H-pyrazol-3-yl)acetamide]	< 100
Cc1nc(C(N)=O)sc1Oc1ccc(-n2ncn(Cc3ccccc3C#N)c2=O)cc1F [Example 566, 5-(4-(4-(2-cyanobenzyl)-5-oxo-4,5-dihydro-1H-1,2,4-triazol-1-yl)-2-fluorophenoxy)-4-methylthiazole-2-carboxamide]	< 100

Same assay, conditions: Homo sapiens, HT-29, HT-29 necroptosis cell viability, IC50 class symbols; read-out: Activity

Compound	IC50 [nM]
Cc1nc(C(C)(C)O)sc1Oc1ccc(-n2ncn(Cc3c(F)cccc3F)c2=O)cc1F [Example 462, 4-(2,6-difluorobenzyl)-2-(3-fluoro-4-((2-(2-hydroxypropan-2-yl)-4-methylthiazol-5-yl)oxy)phenyl)-2,4-dihydro-3H-1,2,4-triazol-3-one]	< 100
O=c1n(Cc2c(F)cccc2F)cnn1-c1ccc(Oc2ccnc(NCC3CCOC3)c2)cc1 (centres unmarked) [Example 259, 4-(2,6-difluorobenzyl)-2-(4-((2-(((tetrahydrofuran-3-yl)methyl)amino)pyridin-4-yl)oxy)phenyl)-2,4-dihydro-3H-1,2,4-triazol-3-one]	100 to 1000
C[C@@H](Nc1cc(Oc2ccc(-n3ncn(Cc4c(F)cccc4F)c3=O)cc2)ccn1)C1CCC1 [Example 348, (R)-2-(4-((2-((1-cyclobutylethyl)amino)pyridin-4-yl)oxy)phenyl)-4-(2,6-difluorobenzyl)-2,4-dihydro-3H-1,2,4-triazol-3-one]	100 to 1000
COC1(C#N)CN(c2cc(Oc3ccc(-n4ncn(Cc5c(F)cccc5F)c4=O)cc3)ccn2)C1 [Example 366, 1-(4-(4-(4-(2,6-difluorobenzyl)-5-oxo-4,5-dihydro-1H-1,2,4-triazol-1-yl)phenoxy)pyridin-2-yl)-3-methoxyazetidine-3-carbonitrile]	< 100
O=c1n(Cc2c(F)cccc2F)cnn1-c1ccc(S(=O)(=O)c2ccnc(N3CCC3)c2)cc1 [Example 350, 2-(4-((2-(azetidin-1-yl)pyridin-4-yl)sulfonyl)phenyl)-4-(2,6-difluorobenzyl)-2,4-dihydro-3H-1,2,4-triazol-3-one]	< 100
CC1(N)CN(c2nccc(Oc3ccc(-n4ncn(Cc5c(F)cccc5F)c4=O)cc3F)c2F)C1 [Example 416, 2-(4-((2-(3-amino-3-methylazetidin-1-yl)-3-fluoropyridin-4-yl)oxy)-3-fluorophenyl)-4-(2,6-difluorobenzyl)-2,4-dihydro-3H-1,2,4-triazol-3-one]	< 100

Same assay, conditions: Homo sapiens; HT-29 cells stimulated with TNF-α (10 ng/ml), SMAC mimetic (6 μM) and zVAD-FMK (10 μM); 20 hours; CellTiter-Glo ATP luminescence; geometric mean IC50 from 10 points; read-out: Activity

Compound	IC50 [nM]
Cc1nc(C#N)sc1Oc1ccc(-n2ncn(Cc3c(F)cccc3F)c2=O)cc1Cl [Example 86, 5-(2-chloro-4-(4-(2,6-difluorobenzyl)-5-oxo-4,5-dihydro-1H-1,2,4-triazol-1-yl)phenoxy)-4-methylthiazole-2-carbonitrile]	< 100
Cc1nc(Br)sc1Oc1ccc(-n2ncn(Cc3c(F)cccc3C#N)c2=O)cc1F [Example 7, 2-((1-(4-((2-bromo-4-methylthiazol-5-yl)oxy)-3-fluorophenyl)-5-oxo-1,5-dihydro-4H-1,2,4-triazol-4-yl)methyl)-3-fluorobenzonitrile]	< 100
Cc1c(Oc2ccc(-n3nc4n(c3=O)[C@H](c3ccccc3)CC4)cc2F)noc1C(N)=O (single isomer, unassigned) [Example 690]	< 100
Cc1nc(C)c(Oc2ccc(-n3ncn(Cc4c(F)cccc4F)c3=O)cc2)s1 [Example 97, 4-(2,6-difluorobenzyl)-2-(4-((2,4-dimethylthiazol-5-yl)oxy)phenyl)-2,4-dihydro-3H-1,2,4-triazol-3-one]	< 100

— patent US20250179061A1 (SIRONAX LTD., priority 2022, published 2025)
